Laboratory results: ChEMBL document CHEMBL3991601, “The target landscape of clinical kinase drugs” (Science, 2017)
The source made the active and inactive calls.

Experiments:
[1] = target: Serine/threonine-protein kinase 24 (Homo sapiens, UniProt Q9Y6E0)
[2] = target: T1, Cysteine--tRNA ligase, cytoplasmic (Homo sapiens, UniProt P49589)
T1 sequence (P49589 whole entry): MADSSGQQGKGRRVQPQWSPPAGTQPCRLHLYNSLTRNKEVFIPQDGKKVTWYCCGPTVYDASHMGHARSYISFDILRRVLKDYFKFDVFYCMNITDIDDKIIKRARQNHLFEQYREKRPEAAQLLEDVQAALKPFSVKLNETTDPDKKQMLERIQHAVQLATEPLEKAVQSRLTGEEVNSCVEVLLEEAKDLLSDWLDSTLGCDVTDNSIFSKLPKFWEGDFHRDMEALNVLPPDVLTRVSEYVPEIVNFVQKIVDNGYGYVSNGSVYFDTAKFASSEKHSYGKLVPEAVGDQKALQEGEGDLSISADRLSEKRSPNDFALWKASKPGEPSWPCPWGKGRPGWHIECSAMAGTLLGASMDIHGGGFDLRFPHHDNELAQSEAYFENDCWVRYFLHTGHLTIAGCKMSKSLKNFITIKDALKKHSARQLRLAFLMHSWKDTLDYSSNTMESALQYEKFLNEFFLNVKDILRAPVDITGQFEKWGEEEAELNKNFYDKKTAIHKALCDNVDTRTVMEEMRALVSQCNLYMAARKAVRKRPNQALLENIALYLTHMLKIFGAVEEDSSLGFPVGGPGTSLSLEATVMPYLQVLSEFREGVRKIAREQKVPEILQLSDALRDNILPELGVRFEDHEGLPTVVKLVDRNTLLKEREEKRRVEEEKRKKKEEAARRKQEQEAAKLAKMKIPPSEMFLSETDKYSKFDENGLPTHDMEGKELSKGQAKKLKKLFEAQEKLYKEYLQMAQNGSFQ

[3] = target: Phosphatidylethanolamine-binding protein 1 (Homo sapiens, UniProt P30086)
Phosphatidylethanolamine-binding protein 1, sequence (P30086 whole entry): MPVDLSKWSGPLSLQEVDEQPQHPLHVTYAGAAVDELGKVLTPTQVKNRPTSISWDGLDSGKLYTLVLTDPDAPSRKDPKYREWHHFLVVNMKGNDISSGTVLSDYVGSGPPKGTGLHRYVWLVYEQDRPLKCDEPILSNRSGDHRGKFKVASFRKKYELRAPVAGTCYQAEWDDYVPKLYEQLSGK

[4] = target: Dual specificity testis-specific protein kinase 2 (Homo sapiens, UniProt Q96S53)
Dual specificity testis-specific protein kinase 2, sequence (Q96S53 whole entry): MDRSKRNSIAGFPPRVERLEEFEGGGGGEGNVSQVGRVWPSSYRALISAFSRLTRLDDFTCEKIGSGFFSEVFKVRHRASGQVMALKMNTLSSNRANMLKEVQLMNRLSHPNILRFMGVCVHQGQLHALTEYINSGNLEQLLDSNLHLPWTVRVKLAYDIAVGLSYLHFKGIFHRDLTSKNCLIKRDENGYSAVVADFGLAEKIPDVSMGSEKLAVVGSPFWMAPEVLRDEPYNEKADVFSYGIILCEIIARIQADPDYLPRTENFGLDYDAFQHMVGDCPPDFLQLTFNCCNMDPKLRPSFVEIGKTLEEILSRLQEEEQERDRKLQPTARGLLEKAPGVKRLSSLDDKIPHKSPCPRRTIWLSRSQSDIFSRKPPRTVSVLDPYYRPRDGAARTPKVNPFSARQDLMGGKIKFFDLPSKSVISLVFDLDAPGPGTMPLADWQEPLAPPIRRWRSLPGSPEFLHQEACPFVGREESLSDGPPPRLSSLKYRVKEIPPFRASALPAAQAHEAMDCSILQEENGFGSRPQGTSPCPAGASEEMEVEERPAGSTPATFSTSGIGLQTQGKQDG

[5] = target: Dual specificity protein kinase CLK4 (Homo sapiens, UniProt Q9HAZ1)
Dual specificity protein kinase CLK4, sequence (Q9HAZ1 whole entry, the tested form may be a part): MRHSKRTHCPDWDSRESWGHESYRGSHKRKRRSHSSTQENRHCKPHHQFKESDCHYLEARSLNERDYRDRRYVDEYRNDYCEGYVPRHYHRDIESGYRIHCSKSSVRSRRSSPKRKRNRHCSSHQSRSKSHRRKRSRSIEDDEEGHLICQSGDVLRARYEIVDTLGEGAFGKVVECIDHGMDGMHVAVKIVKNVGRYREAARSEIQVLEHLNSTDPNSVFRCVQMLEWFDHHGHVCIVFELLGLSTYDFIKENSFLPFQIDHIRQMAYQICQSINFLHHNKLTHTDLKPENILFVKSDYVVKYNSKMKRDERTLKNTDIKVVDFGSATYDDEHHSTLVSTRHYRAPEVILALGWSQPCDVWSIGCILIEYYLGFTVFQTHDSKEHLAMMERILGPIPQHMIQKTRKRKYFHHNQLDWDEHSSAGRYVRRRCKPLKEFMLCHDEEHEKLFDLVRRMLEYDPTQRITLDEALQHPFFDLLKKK

[6] = target: Uncharacterized aarF domain-containing protein kinase 5 (Homo sapiens, UniProt Q3MIX3)
[7] = target: Dual specificity protein kinase CLK3 (Homo sapiens, UniProt P49761); type: subcellular, K-562, COLO 205, SK-N-BE(2) and MV-4-11, Cell lysate; conditions: read-out: Kd apparent
Dual specificity protein kinase CLK3, sequence (P49761 whole entry): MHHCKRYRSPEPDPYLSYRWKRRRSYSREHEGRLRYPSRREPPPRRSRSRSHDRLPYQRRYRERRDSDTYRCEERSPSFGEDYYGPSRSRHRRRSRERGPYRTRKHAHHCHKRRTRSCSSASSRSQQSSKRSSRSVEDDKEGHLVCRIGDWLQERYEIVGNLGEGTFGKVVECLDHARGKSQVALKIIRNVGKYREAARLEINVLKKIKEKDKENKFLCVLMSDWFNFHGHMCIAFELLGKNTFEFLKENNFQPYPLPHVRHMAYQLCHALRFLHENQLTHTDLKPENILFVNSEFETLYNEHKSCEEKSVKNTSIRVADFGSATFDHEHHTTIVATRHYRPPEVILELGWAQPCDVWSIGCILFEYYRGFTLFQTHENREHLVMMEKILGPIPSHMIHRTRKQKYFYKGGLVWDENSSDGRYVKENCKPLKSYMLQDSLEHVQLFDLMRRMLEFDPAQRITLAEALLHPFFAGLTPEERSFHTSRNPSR

[8] = target: Serine/threonine-protein kinase PLK1 (Homo sapiens, UniProt P53350)
[9] = target: T2, Tyrosine-protein kinase Mer (Homo sapiens, UniProt Q12866)
T2 sequence (Q12866 whole entry): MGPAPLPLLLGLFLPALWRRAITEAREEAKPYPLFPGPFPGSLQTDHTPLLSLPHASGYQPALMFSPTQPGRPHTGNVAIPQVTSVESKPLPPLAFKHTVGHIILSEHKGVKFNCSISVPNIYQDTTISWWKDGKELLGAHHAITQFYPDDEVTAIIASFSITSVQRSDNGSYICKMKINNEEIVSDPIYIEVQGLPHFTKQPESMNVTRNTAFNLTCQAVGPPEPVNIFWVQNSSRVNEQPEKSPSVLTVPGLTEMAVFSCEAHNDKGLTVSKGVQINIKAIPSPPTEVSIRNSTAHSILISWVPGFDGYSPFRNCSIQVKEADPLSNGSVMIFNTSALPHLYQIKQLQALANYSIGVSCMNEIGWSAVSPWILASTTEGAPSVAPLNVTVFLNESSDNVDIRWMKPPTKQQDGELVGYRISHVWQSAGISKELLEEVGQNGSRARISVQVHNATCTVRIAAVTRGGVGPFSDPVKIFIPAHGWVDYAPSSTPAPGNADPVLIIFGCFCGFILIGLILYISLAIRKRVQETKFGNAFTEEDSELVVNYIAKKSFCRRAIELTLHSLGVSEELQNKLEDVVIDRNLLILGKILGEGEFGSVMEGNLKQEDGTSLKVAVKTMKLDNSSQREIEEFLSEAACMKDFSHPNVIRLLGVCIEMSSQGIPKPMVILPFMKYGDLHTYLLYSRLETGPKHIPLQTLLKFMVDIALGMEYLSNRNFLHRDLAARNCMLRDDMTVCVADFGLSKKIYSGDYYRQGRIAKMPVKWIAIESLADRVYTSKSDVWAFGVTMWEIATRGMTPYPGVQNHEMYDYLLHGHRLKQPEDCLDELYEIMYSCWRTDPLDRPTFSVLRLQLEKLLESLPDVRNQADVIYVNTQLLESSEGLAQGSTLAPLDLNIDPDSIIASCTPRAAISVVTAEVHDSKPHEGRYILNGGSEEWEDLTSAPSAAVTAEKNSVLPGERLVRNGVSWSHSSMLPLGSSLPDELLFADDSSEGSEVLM

UMP-CMP kinase = target: T3, UMP-CMP kinase (Homo sapiens, UniProt P30085)
T3 sequence (P30085 whole entry): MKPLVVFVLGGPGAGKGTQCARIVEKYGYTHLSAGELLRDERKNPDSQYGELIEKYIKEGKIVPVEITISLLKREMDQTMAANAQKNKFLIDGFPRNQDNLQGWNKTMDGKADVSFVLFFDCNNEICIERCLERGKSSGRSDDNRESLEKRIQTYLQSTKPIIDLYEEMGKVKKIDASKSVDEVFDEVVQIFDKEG

[10] = target: Choline-phosphate cytidylyltransferase A (Homo sapiens, UniProt P49585)
Choline-phosphate cytidylyltransferase A, sequence (P49585 whole entry): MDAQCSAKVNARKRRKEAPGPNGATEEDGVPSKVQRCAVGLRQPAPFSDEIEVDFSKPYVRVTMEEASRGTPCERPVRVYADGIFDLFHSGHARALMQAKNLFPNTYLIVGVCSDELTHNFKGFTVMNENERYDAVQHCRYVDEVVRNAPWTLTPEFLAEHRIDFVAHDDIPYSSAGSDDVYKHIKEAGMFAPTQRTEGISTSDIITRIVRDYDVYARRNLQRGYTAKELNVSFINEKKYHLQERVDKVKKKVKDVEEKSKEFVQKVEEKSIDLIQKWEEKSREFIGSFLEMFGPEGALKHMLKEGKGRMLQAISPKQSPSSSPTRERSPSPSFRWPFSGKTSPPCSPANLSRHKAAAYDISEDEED

[11] = target: Serine/threonine-protein kinase Nek7 (Homo sapiens, UniProt Q8TDX7)
Serine/threonine-protein kinase Nek7, sequence (Q8TDX7 whole entry): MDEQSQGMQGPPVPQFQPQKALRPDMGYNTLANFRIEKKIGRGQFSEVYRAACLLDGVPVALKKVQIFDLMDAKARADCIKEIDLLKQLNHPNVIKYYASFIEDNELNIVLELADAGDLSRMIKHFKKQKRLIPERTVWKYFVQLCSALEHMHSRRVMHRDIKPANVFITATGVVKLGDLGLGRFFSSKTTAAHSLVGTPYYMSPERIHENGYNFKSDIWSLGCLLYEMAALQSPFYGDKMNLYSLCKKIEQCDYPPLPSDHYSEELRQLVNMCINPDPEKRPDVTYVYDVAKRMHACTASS

[12] = target: Serine/threonine-protein kinase ATR (Homo sapiens, UniProt Q13535)
[13] = target: Serine/threonine-protein kinase 38-like (Homo sapiens, UniProt Q9Y2H1)
Serine/threonine-protein kinase 38-like, sequence (Q9Y2H1 whole entry): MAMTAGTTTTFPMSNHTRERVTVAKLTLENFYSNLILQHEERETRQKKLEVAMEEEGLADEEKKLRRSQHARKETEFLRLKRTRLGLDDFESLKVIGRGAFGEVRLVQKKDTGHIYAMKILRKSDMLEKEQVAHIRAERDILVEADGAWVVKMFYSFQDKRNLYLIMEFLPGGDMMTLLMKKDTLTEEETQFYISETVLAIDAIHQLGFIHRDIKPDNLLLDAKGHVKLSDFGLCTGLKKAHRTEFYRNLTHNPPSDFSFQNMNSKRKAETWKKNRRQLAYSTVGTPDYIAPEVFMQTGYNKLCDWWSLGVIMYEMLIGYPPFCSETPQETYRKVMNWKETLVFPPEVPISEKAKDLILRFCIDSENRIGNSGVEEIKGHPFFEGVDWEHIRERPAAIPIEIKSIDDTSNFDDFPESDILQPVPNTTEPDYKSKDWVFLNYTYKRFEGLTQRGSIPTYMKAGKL

[14] = target: Serine/threonine-protein kinase B-raf (Homo sapiens, UniProt P15056)
[15] = target: Rho-associated protein kinase 1 (Homo sapiens, UniProt Q13464)
Rho-associated protein kinase 1, sequence (Q13464 whole entry): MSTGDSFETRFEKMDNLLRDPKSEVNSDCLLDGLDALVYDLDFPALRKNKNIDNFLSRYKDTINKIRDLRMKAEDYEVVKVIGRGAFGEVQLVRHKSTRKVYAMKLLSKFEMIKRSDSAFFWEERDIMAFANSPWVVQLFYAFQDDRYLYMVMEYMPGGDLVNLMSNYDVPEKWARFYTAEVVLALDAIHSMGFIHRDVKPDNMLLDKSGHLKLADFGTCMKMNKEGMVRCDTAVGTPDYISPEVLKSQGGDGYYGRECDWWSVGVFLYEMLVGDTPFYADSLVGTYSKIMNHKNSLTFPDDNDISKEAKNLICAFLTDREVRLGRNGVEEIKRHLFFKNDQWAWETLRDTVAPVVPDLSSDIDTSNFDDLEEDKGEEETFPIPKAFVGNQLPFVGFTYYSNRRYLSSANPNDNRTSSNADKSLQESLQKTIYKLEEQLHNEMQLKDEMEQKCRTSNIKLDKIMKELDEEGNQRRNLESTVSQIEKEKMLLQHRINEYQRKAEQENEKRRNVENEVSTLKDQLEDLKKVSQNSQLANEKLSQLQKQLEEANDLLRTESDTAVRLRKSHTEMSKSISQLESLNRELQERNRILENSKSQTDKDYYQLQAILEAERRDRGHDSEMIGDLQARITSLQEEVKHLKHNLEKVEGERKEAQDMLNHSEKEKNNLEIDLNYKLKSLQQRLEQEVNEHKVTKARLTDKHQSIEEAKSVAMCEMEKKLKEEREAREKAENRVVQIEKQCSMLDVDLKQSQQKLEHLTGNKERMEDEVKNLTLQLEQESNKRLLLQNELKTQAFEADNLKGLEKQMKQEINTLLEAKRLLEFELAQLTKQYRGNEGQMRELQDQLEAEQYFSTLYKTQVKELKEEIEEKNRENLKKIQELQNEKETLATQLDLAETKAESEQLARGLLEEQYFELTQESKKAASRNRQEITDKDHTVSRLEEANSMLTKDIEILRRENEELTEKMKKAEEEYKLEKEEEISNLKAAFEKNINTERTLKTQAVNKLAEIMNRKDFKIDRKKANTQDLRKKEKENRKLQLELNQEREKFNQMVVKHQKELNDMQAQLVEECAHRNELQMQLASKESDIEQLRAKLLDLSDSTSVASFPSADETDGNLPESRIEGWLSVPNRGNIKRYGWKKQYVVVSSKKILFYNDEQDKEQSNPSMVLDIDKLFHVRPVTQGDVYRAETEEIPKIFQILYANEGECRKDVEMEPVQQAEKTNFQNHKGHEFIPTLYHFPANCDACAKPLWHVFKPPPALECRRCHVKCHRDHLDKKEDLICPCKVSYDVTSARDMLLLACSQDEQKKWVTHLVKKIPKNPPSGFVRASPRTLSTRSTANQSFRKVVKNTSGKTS
Note: in the data inactive means no Kd found up to 30 µM.

Serine/threonine-protein kinase 24, sequence (Q9Y6E0 whole entry): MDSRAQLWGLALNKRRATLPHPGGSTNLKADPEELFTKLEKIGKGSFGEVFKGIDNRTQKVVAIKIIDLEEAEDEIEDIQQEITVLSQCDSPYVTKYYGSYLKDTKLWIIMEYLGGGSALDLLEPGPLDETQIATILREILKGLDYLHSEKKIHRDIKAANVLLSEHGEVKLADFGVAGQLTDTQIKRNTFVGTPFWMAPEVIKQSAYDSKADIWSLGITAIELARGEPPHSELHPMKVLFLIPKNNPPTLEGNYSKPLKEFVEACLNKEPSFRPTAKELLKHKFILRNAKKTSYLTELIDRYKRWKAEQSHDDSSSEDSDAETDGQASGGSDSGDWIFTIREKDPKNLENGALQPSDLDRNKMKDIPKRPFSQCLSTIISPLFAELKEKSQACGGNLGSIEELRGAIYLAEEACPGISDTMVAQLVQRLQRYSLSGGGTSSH

Row | Compound | Kd [1] | Kd [2] | Kd [3] | Kd [4] | Kd [5] | Kd [6] | Kd [7] | Kd [8] | Kd [9] | Kd (UMP-CMP kinase) | Kd [10] | Kd [11] | Kd [12] | Kd [13] | Kd [14] | Kd [15]
1 | CC(C)(C)c1nc(-c2cccc(NS(=O)(=O)c3c(F)cccc3F)c2F)c(-c2ccnc(N)n2)s1 [DABRAFENIB] | > 30 µM (inactive) | > 30 µM (inactive) | > 30 µM (inactive) | > 30 µM (inactive) | > 30 µM (inactive) | > 30 µM (inactive) | > 30 µM (inactive) | > 30 µM (inactive) | > 30 µM (inactive) | > 30 µM (inactive) | > 30 µM (inactive) |  |  |  |  | 
2 | N#CC1(c2ccc(NC(=O)c3cccnc3NCc3ccncc3)cc2)CCCC1 [RIVOCERANIB] | > 30 µM (inactive) | > 30 µM (inactive) | > 30 µM (inactive) | > 30 µM (inactive) | > 30 µM (inactive) | > 30 µM (inactive) | > 30 µM (inactive) |  |  | > 30 µM (inactive) |  | > 30 µM (inactive) | > 30 µM (inactive) | > 30 µM (inactive) | > 30 µM (inactive) | 
3 | CO[C@H]1C[C@@H]2CC[C@@H](C)[C@@](O)(O2)C(=O)C(=O)N2CCCC[C@H]2C(=O)O[C@H]([C@H](C)C[C@@H]2CC[C@@H](O)[C@H](OC)C2)CC(=O)[C@H](C)/C=C(\C)[C@@H](O)[C@@H](OC)C(=O)[C@H](C)C[C@H](C)/C=C/C=C/C=C/1C [SIROLIMUS] | > 30 µM (inactive) | > 30 µM (inactive) | > 30 µM (inactive) | > 30 µM (inactive) | > 30 µM (inactive) | > 30 µM (inactive) | > 30 µM (inactive) | > 30 µM (inactive) | > 30 µM (inactive) | > 30 µM (inactive) | > 30 µM (inactive) |  |  |  | > 30 µM (inactive) | > 30 µM (inactive)
4 | Cc1cc(Nc2ncnc3ccc(NC4=NC(C)(C)CO4)cc23)ccc1Oc1ccn2ncnc2c1 [TUCATINIB] | > 30 µM (inactive) | > 30 µM (inactive) | > 30 µM (inactive) | > 30 µM (inactive) | > 30 µM (inactive) |  |  |  | > 30 µM (inactive) | > 30 µM (inactive) | > 30 µM (inactive) | > 30 µM (inactive) |  |  |  | > 30 µM (inactive)
5 | O=C1NC(=O)[C@@H](c2cn3c4c(cccc24)CCC3)[C@@H]1c1c[nH]c2ccccc12 [TIVANTINIB] |  | > 30 µM (inactive) | > 30 µM (inactive) | > 30 µM (inactive) | > 30 µM (inactive) | > 30 µM (inactive) | > 30 µM (inactive) |  |  | > 30 µM (inactive) |  | > 30 µM (inactive) |  | > 30 µM (inactive) | > 30 µM (inactive) | > 30 µM (inactive)
6 | Cc1cnc(NC(=O)Nc2cc(Br)c(C)cc2OC[C@@H]2CNCCO2)cn1 [RABUSERTIB] | > 30 µM (inactive) | > 30 µM (inactive) | > 30 µM (inactive) | > 30 µM (inactive) | > 30 µM (inactive) |  | > 30 µM (inactive) | > 30 µM (inactive) | > 30 µM (inactive) |  | > 30 µM (inactive) | > 30 µM (inactive) | > 30 µM (inactive) |  |  | > 30 µM (inactive)
7 | CNC(=O)c1cc(Oc2ccc(NC(=O)Nc3cc(C(C)(C)C)nn3-c3ccc4ncccc4c3)c(F)c2)ccn1 [REBASTINIB] |  |  |  | 0.002 µM | 2.53 µM | > 30 µM (inactive) | > 30 µM (inactive) | > 30 µM (inactive) | > 30 µM (inactive) |  | > 30 µM (inactive) | > 30 µM (inactive) |  |  |  | > 30 µM (inactive)
8 | C=CC(=O)N1CCC[C@H](n2c(=O)n(-c3ccc(Oc4ccccc4)cc3)c3c(N)ncnc32)C1 | > 30 µM (inactive) | > 30 µM (inactive) | > 30 µM (inactive) | > 30 µM (inactive) | > 30 µM (inactive) |  | > 30 µM (inactive) | > 30 µM (inactive) | > 30 µM (inactive) | > 30 µM (inactive) |  |  |  |  | > 30 µM (inactive) | > 30 µM (inactive)
9 | COc1cc2c(Nc3ccc(Cl)c(Cl)c3F)ncnc2cc1OC[C@@H]1C[C@@H]2CN(C)C[C@@H]2C1 [TESEVATINIB] | > 30 µM (inactive) | > 30 µM (inactive) | > 30 µM (inactive) | > 30 µM (inactive) | > 30 µM (inactive) | > 30 µM (inactive) | > 30 µM (inactive) |  | > 30 µM (inactive) |  | > 30 µM (inactive) | > 30 µM (inactive) | > 30 µM (inactive) |  |  | > 30 µM (inactive)
10 | O=c1[nH]ccc2cc(OC3CCNCC3)ccc12 [SAR-407899 FREE BASE] | > 30 µM (inactive) | > 30 µM (inactive) | > 30 µM (inactive) | > 30 µM (inactive) | > 30 µM (inactive) | > 30 µM (inactive) |  | > 30 µM (inactive) | > 30 µM (inactive) | > 30 µM (inactive) |  | > 30 µM (inactive) | > 30 µM (inactive) |  | > 30 µM (inactive) | 

The remaining lines, values ahead:

Row | Kd [1] | Kd [2] | Kd [3] | Kd [4] | Kd [5] | Kd [6] | Kd [7] | Kd [8] | Kd [9] | Kd (UMP-CMP kinase) | Kd [10] | Kd [11] | Kd [12] | Kd [13] | Kd [14] | Kd [15] | Compound
11 | > 30 µM (inactive) | > 30 µM (inactive) | > 30 µM (inactive) |  | > 30 µM (inactive) |  | > 30 µM (inactive) | > 30 µM (inactive) | > 30 µM (inactive) | > 30 µM (inactive) |  |  |  |  | 2.85 µM (active) | > 30 µM (inactive) | COc1cc2ncnc(Oc3cccc(NC(=O)Nc4cc(C(C)(C)C(F)(F)F)on4)c3)c2cc1OC [CEP-32496]
12 | > 30 µM (inactive) | > 30 µM (inactive) | > 30 µM (inactive) |  |  |  |  |  | > 30 µM (inactive) | > 30 µM (inactive) | > 30 µM (inactive) | > 30 µM (inactive) |  |  |  | > 30 µM (inactive) | NC1(c2ccc(-c3nc4ccn5c(=O)[nH]nc5c4cc3-c3ccccc3)cc2)CCC1 [MK-2206]
13 | > 30 µM (inactive) |  | > 30 µM (inactive) | > 30 µM (inactive) | > 30 µM (inactive) | > 30 µM (inactive) | 1.48 µM (active) |  | > 30 µM (inactive) | > 30 µM (inactive) |  |  |  |  | 2.48 µM (active) | > 30 µM (inactive) | Cc1csc(-c2nnc(Nc3ccc(Oc4ncccc4-c4ccnc(N)n4)cc3)c3ccccc23)c1 [AMG-900]
14 |  |  | > 30 µM (inactive) |  |  | > 30 µM (inactive) | > 30 µM (inactive) |  |  |  |  |  | > 30 µM (inactive) | > 30 µM (inactive) |  |  | NC(=O)c1c(OCc2c(F)cc(Br)cc2F)nsc1NC(=O)NCCCCN1CCCC1 [OSI-632]
